± gives the standard deviation of the reports.
Assays:
[1] = not given; remark: listed apart in the source
[2] = not given; remark: listed apart in the source
[3] = not given; remark: listed apart in the source
[4] = not given; remark: listed apart in the source

glass transition temperature [°C] | glass transition temperature [2] [°C] | Compound | other results
74.00 | – | *c1ccc(-c2ccc(-c3cc4c5c(c(*)cc6c5c3C(=O)N(CC(CCCCCCCC)CCCCCCCCCC)C6=O)C(=O)N(CC(CCCCCCCC)CCCCCCCCCC)C4=O)s2)s1 (repeat unit) | –
16.00 | – | *c1ccc2c(c1)C(CCCCCCCCCCCC)(CCCCCCCCCCCC)c1cc(*)ccc1-2 (repeat unit) | –
28.00 | – | *c1ccc(-c2sc(-c3c(F)c(F)c(-c4cc(CC(CCCCCCCC)CCCCCCCCCC)c(-c5ccc(*)s5)s4)c4nsnc34)cc2CC(CCCCCCCC)CCCCCCCCCC)s1 (repeat unit) | –
– | – | *CC(*)c1ccccc1CC (repeat unit) [Poly(o-ethyl styrene) ] | glass transition temperature [1]: 102 ± 1.4 °C
79.00 | – | *c1ccc2c(c1)C(CCCCCCCC)(CCCCCCCC)c1cc(-c3sc(-c4ccc(-c5cc(CCCCCC)c(*)s5)c5nsnc45)cc3CCCCCC)ccc1-2 (repeat unit) | –
– | – | *c1nc(C(F)(F)F)nc(C(F)(OC(F)(F)C(F)(F)C(F)(F)C(F)(F)C(F)(F)C(F)(F)OC(*)(F)C(F)(F)F)C(F)(F)F)n1 (repeat unit) [Perfluoropolymer 1] | glass transition temperature [1]: -13.6 ± 0.7 °C
87.00 | – | *c1ccc(-c2ccc(OCCCCCCCC)c(-c3cc(*)ccc3OCCCCCCCC)c2)cc1 (repeat unit) | –
– | – | *CC(*)c1ccc(CO)cc1 (repeat unit) [Poly(p-hydroxymethyl styrene) ] | glass transition temperature [1]: 139 ± 1.4 °C
113.00 | – | *C=Cc1cc(OC)c(C=Cc2cc(OC)c(*)cc2OC)cc1OCC(CC)CCCC (repeat unit) | –
– | – | *Oc1ccc(Oc2ccc(Oc3ccc4c(c3)C(=O)N(CCCCCCN3C(=O)c5ccc(*)cc5C3=O)C4=O)cc2)cc1 (repeat unit) [Polyetherimide 1 ] | glass transition temperature [1]: 126.4 ± 2.1 °C
117.00 | – | *c1ccc(-c2ccc(OCCCCCC)c(-c3cc(*)ccc3OCCCCCC)c2)cc1 (repeat unit) | –
– | – | *CC(*)(C)C(=O)OCC(CC)CC (repeat unit) [Poly(2-ethylbutyl methacrylate) ] | glass transition temperature [1]: 10.4 ± 0.7 °C
– | – | *CC(*)OC(=O)CCC (repeat unit) [Poly(vinyl butyrate) ] | glass transition temperature [1]: 2 ± 4.2 °C
– | 269.00 | *Oc1ccc2c(c1)C(=O)N(c1ccc(Sc3ccc(N4C(=O)c5ccc(*)cc5C4=O)cc3)cc1)C2=O (repeat unit) | –
– | – | *CC(*)OC(=O)C=Cc1ccccc1 (repeat unit) [poly(vinyl cinnamate)] | glass transition temperature [3]: 77 °C
– | 273.00 | *Sc1ccc2c(c1)C(=O)N(c1ccc(Oc3ccc4ccccc4c3-c3c(Oc4ccc(N5C(=O)c6ccc(*)cc6C5=O)cc4C(F)(F)F)ccc4ccccc34)c(C(F)(F)F)c1)C2=O (repeat unit) | –
– | – | *CC(*)OCCC (repeat unit) [Poly(propyl vinyl ether)] | glass transition temperature [4]: -49 °C
– | 325.00 | *c1ccc2c(c1)C(=O)N(c1ccc(-c3ccc(N4C(=O)c5ccc(C(*)(C(F)(F)F)C(F)(F)F)cc5C4=O)cc3C)c(C)c1)C2=O (repeat unit) | –
– | 274.00 | *Sc1cccc2c1C(=O)N(c1cc(Cc3ccc(N4C(=O)c5cccc(*)c5C4=O)c(C)c3)ccc1C)C2=O (repeat unit) | –
140.00 | – | *c1ccc(N(c2ccc(-c3ccc4c(c3)C(CCCCCCCC)(CCCCCCCC)c3cc(*)ccc3-4)cc2)c2ccc(C(C)CC)cc2)cc1 (repeat unit) | –
40.00 | – | *c1cc2c(OCC(CC)CCCC)c3sc(-c4sc(*)c5c(F)c(C(=O)OCC(CC)CCCC)sc45)cc3c(OCC(CC)CCCC)c2s1 (repeat unit) | –
– | 226.00 | *c1ccc2c(c1)C(=O)N(c1ccc(OCC(F)(F)C(F)(F)C(F)(F)C(F)(F)C(F)(F)C(F)(F)C(F)(F)F)c(N3C(=O)c4ccc(C(*)(C(F)(F)F)C(F)(F)F)cc4C3=O)c1)C2=O (repeat unit) | –
– | 192.00 | *C1=C(Cl)C(=O)N(c2ccc(Cc3ccc(N4C(=O)C(Cl)=C(Oc5ccc(*)cc5)C4=O)cc3)cc2)C1=O (repeat unit) | –
– | 321.70 | *c1ccc2c(c1)C(=O)N(c1cc(C(F)(F)F)cc(N3C(=O)c4ccc(C(*)(C(F)(F)F)C(F)(F)F)cc4C3=O)c1OC(c1c(F)c(F)c(F)c(F)c1F)c1c(F)c(F)c(F)c(F)c1F)C2=O (repeat unit) | –
– | 292.00 | *c1ccc(Oc2ccc(Oc3ccc(-n4c(=O)c5ccc6c(=O)n(*)c(=O)c6c5c4=O)cc3)cc2)cc1 (repeat unit) | –
– | 202.00 | *Oc1cccc(C(C)(C)c2ccc(Oc3cccc4c3C(=O)N(c3ccc(Oc5cccc(Oc6ccc(N7C(=O)c8cccc(*)c8C7=O)cc6)c5)cc3)C4=O)cc2)c1 (repeat unit) | –
5.00 | – | *c1cc(CCCCCCCCCCCCCC)c(-c2sc(-c3cc4sc(*)cc4s3)cc2CCCCCCCCCCCCCC)s1 (repeat unit) | –
– | 329.00 | *c1ccc2c(c1)C(=O)N(c1cc(N3C(=O)c4ccc(*)cc4C3=O)cc(C(F)(F)F)c1)C2=O (repeat unit) | –
– | 180.00 | *Oc1ccc(C(c2ccc(Oc3ccc4c(c3)C(=O)N(CCCCN3C(=O)c5ccc(*)cc5C3=O)C4=O)cc2)(C(F)(F)F)C(F)(F)F)cc1 (repeat unit) | –
– | – | *CC(*)C(=O)OC(C)CCCCC (repeat unit) [Poly(2-heptyl acrylate) ] | glass transition temperature [1]: -39 ± 1.4 °C

Compound | glass transition temperature [°C] | glass transition temperature [2] [°C] | other results
*c1ccc(P(=O)(c2ccccc2)c2ccc(-n3c(=O)c4cc5c(=O)n(*)c(=O)c5cc4c3=O)cc2)cc1 (repeat unit) | – | 425.00 | –

Source: the PolyMetriX glass transition set
